Reference: patent US5198424A, “Functionally active selectin-derived peptides” (Board of Regents of the University of Oklahoma, priority 1992, dated 1993)
Read-outs that look alike come from different tables or passages of the source. One block for each substance: values may come before it. Ends that are not written are not given here.

Legend:
[1] = molecular target: T1, GMP-140 (Homo sapiens, UniProt P16109); assay: Neutrophil adhesion to purified GMP-140 immobilized on plastic wells (myeloperoxidase readout); assay type: cell-based; set-up: from tissue; host or cells: outdated human platelet packs (platelet lysate); conditions: for % Bound (neutrophils bound to immobilized GMP-140 in the presence of GMP-140-derived peptide): peptide 1.5 mM, cells bound with control C-terminal peptide 761-777 normalized to 100%; for adhesion of neutrophils to immobilized GMP-140 abolished: neutrophils treated with the protease
T1 sequence (P16109 42-830): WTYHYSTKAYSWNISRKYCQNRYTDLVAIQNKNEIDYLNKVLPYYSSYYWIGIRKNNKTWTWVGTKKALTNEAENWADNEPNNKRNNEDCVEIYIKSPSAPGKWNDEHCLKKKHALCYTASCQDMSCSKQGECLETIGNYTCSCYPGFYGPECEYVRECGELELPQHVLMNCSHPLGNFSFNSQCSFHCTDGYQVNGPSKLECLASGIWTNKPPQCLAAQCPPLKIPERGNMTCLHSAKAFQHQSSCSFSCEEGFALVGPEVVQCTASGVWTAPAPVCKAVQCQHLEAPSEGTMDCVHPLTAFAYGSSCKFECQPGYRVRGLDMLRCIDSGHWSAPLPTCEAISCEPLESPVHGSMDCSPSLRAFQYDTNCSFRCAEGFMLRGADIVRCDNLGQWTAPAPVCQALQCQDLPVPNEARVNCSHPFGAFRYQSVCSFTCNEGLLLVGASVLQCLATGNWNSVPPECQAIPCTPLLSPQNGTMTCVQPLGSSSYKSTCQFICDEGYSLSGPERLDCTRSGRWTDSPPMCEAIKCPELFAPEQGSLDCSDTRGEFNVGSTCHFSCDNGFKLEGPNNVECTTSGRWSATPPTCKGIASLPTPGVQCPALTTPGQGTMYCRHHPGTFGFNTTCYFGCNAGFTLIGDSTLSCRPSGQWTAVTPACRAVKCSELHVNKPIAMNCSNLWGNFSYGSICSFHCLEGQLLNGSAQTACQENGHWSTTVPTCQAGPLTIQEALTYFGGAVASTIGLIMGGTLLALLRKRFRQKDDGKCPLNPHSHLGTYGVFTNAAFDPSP
Description: Peptides were screened for their ability to inhibit neutrophil adhesion to purified GMP-140 immobilized on plastic wells, using the assay described by Geng, et al., Nature 343, 757-760 (1990).
Human neutrophils are isolated from heparinized whole blood by density gradient centrifugation on Mono-Poly resolving media, Flow Laboratories. Neutrophil suspensions are greater than 98% pure and greater than 95% viable by trypan blue exclusion. For adhesion assays, neutrophils are suspended at a concentration of 2×10^6 cells/ml in Hanks' balanced salt solution containing 1.26 mM Ca^2+ and 0.81 mM Mg^2+ (HBSS, Gibco) with 5 mg/ml human serum albumin (HBSS/HSA). Adhesion assays are conducted in triplicate in 96-well microtiter plates, Corning, incubated at 4° C. overnight with 50 microliters of various protein solutions.
GMP-140 is plated at 5 micrograms/ml and the control proteins: human serum albumin (Alb), platelet glycoprotein IIb/IIIa (IIb), von Willebrand factor (vWF), fibrinogen (FIB), thrombomodulin (TM), gelatin (GEL) or human serum (HS), are added at 50 micrograms/ml. All wells are blocked for 2 h at 22° C. with 300 microliters HBSS containing 10 mg/ml HSA, then washed three times with HBSS containing 0.1% Tween-20 and once with HBSS. Cells (2×10^5 per well were added to the wells and incubated at 22° C. for 20 min. The wells were then filled with HBSS/HSA, sealed with acetate tape (Dynatech), and centrifuged inverted at 150 g for 5 min. After discarding nonadherent cells and supernates, the contents of each well are solubilized with 200 microliters 0.5% hexadecyltrimethylammonium bromide, Sigma, in 50 mM potassium phosphate, pH 6.0, and assayed for myeloperoxidase activity, Ley, et al., Blood 73, 1324-1330 (1989). The number of cells bound was derived from a standard curve of myeloperoxidase activity versus numbers of cells. Under all assay conditions, the cells released less than 5% of total myeloperoxidase and lactate dehydrogenase. Results are presented in Table I. 100% adhesion is that seen in the presence of the C-terminal peptide (amino acid residues 761-777 of GMP-140) as a negative control; this value is the same as controls in which neither peptide nor antibody is added to the cells. Inhibition is read as a lower percent adhesion, so that a value of 5% mean that 95% of the specific adhesion was inhibited.
Peptides from the lectin-like domain of GMP-140 were assayed for their ability to inhibit adhesion of neutrophils to immobilized GMP-140 in the assay described in example 1. Concentrations tested ranged from 0.1 mM to 1.5 mM.

[2] = molecular target: T1, GMP-140; assay: ELISA of binding of biotinylated monoclonal antibodies G1, G2, G3 to immobilized GMP-140 with soluble peptide; set-up: from tissue; host or cells: outdated human platelet packs (platelet lysate); conditions: peptide 1.5 mM; for remaining activity at 1500 µM: 2 h
Method: Based on competitive ELISAs with the purified protein, G1, G2, and G3 each recognize distinct or only partially overlapping epitopes. 1.5 mM peptide was added to biotinylated mAb at a concentration of 2.5 micrograms/ml, which were then added to the wells containing GMP-140, as described in example 1. Binding was measured by an ELISA with an avidin detection system.
The monoclonal antibodies were biotinylated as follows: to 0.5 ml of purified IgG antibody (1 mg/ml in PBS, pH 7.4) was added 50 μl of 3.2 mM N-hydroxysuccinimide biotin in dimethyl sulfoxide and 50 μl of 1 M NaHCO3. After a 2 hour incubation at room temperature in the dark, the reaction was stopped with 50 μl of 1 M NH4 Cl. The biotinylated antibody was then separated from other components by gel filtration on a PD-10 column equilibrated in PBS. The ELISA was performed as follows; all steps were performed at room temperature.
Biotinylated antibody (2.5 μg/ml) with or without 1.5 mM peptide was incubated with wells coated with GMP-140 as described in example 1. After a 2 hour incubation, the antibody was removed, the wells were washed, and 0.1 ml of horseradish peroxidase-conjugated stepavidin (Pierce), diluted 1:1000 in HBSS/HSA, was added for 30 min. The wells were then washed and 0.1 ml of peroxidase substrate (Pierce) was added for 15 min. The color reaction was read at 405 nm.

[3] = tested on: human neutrophils; assay: Binding of 125I[GMP-140] to human neutrophils
Description: This receptor is believed to be a glycoprotein containing sialic acid and other oligosaccharides that are recognized by the lectin domain of GMP-140. Using the assay described in example 1, and an assay in which ^125 I[GMP-140] binds specifically, saturably and reversibly to human neutrophils, as described by Moore and McEver, Clin.Res. 38, 364A (1990), certain critical structural features of the ligand (or, perhaps more accurately, "counter-receptor") for GMP-140 on human neutrophils have been defined.

[4] = mAb G1 2.5 micrograms/ml, read-out: % Binding of Biotinylated MAbs G1
[5] = mAb G2 2.5 micrograms/ml, read-out: % Binding of Biotinylated MAbs G2
[6] = mAb G3 2.5 micrograms/ml, read-out: % Binding of Biotinylated MAbs G3

% Bound (neutrophils bound to immobilized GMP-140 in the presence of GMP-140-derived peptide) [1]: 20%
Substance: NRYTDLVAIQ [21-30]

% Bound (neutrophils bound to immobilized GMP-140 in the presence of GMP-140-derived peptide) [1]: 104%
Substance: PNNKRNNED [81-89]

% Bound (neutrophils bound to immobilized GMP-140 in the presence of GMP-140-derived peptide) [1]: 108%
Substance: RKNNK [54-58]

% Bound (neutrophils bound to immobilized GMP-140 in the presence of GMP-140-derived peptide) [1]: 86%
Substance: RKNNKT [54-59]

% Bound (neutrophils bound to immobilized GMP-140 in the presence of GMP-140-derived peptide) [1]: 63%
Substance: RKNNKTW [54-60]

% Bound (neutrophils bound to immobilized GMP-140 in the presence of GMP-140-derived peptide) [1]: 13%
Substance: RKNNKTWTWV [54-63]

% Binding of Biotinylated MAbs G1 ([2]; mAb G1 2.5 micrograms/ml): 106%
% Binding of Biotinylated MAbs G2 ([2]; mAb G2 2.5 micrograms/ml): 125%
% Binding of Biotinylated MAbs G3 ([2]; mAb G3 2.5 micrograms/ml): 104%
% Bound (neutrophils bound to immobilized GMP-140 in the presence of GMP-140-derived peptide) [1]: 15%
Substance: RKNNKTWTWVGTKKALTNE [54-72]

remaining activity at 1500 µM [2, 4]: 100%
remaining activity at 1500 µM [2, 5]: 119%
remaining activity at 1500 µM [2, 6]: 104%
Substance: RKRFRQK [TRANSMEMBRANE 755-761, reference compound]

% Bound (neutrophils bound to immobilized GMP-140 in the presence of GMP-140-derived peptide) [1]: 6%
Substance: RYTDLVAIQ [22-30]

remaining activity at 1500 µM [2, 4]: 107%
remaining activity at 1500 µM [2, 5]: 92%
remaining activity at 1500 µM [2, 6]: 104%
Substance: SKQGE [EGF 128-132]

% Bound (neutrophils bound to immobilized GMP-140 in the presence of GMP-140-derived peptide) [1]: 102%
Substance: TWTWV [59-63]

% Bound (neutrophils bound to immobilized GMP-140 in the presence of GMP-140-derived peptide) [1]: 91%
Substance: VAIQNKNE [27-34]

remaining activity at 1500 µM [2, 4]: 97%
remaining activity at 1500 µM [2, 5]: 93%
remaining activity at 1500 µM [2, 6]: 96%
Substance: VEIYIKSPSAPGKWNDEH [LECTIN 91-108]

remaining activity at 1500 µM [2, 4]: 94%
remaining activity at 1500 µM [2, 5]: 92%
remaining activity at 1500 µM [2, 6]: 108%
Substance: YPGFYGPECEYVRE [EGF 145-158]

remaining activity at 1500 µM [2, 4]: 92%
remaining activity at 1500 µM [2, 5]: 92%
remaining activity at 1500 µM [2, 6]: 104%
Substance: YTASCQDMS [LECTIN/EGF 118-126]

% Bound (neutrophils bound to immobilized GMP-140 in the presence of GMP-140-derived peptide) [1]: 7%
Substance: YTDLVAIQ [23-30]

% Bound (neutrophils bound to immobilized GMP-140 in the presence of GMP-140-derived peptide) [1]: 30%
Substance: YTDLVAIQNKNE [23-34]

adhesion of neutrophils to immobilized GMP-140 abolished [1]: Greater than 70%
Substance: elastase [reference compound]

Substance: neuraminidase: neuraminidase purified from Vibrio cholera [reference compound]
binding of 125I[GMP-140] to human neutrophils (in words) [3]: abolished
adhesion of neutrophils to immobilized GMP-140 after treatment of neutrophils (in words) ([1]; neutrophils treated with the enzyme): abolished

adhesion of neutrophils to immobilized GMP-140 abolished [1]: Greater than 70%
Substance: trypsin [reference compound]
